In patent US6569872B1, “Use of neurokinin receptor antagonists to treat androgen-dependent diseases” (Schering Corporation, priority 2001, dated 2003):

Key:
serum testosterone = assay: Reduction of LHRH-stimulated serum testosterone in mice; type: in vivo, male nude mice
Method: The effects of Compounds A, B, C, D, E and F on serum testosterone were tested in mice given intramuscular (i.m.) luteinizing hormone releasing hormone (LHRH) to drive testicular androgen biosynthesis.
Male nude mice (8 weeks old, 5 mice/group) were dosed orally with 0, 5, 15, 45, 90, 150 or 300 mg/kg of Compound A in 20% hydroxypropyl β-cyclodextran (HPβCD). After 1 hour, animals were given an i.m. injection of LHRH (250 ng/kg in 50 μl Sterile Water) into the biceps femoris muscle to drive testosterone production. After an additional hour, the animals were anesthetized with ketamine/xylazine, bled by cardiac puncture, and serum testosterone levels were determined by radioimmunoassay.
The effects of 90 mg/kg of Compounds A, B, C, D, E and F on LHRH-stimulated serum testosterone levels were compared in male nude mice.

[1] = type: in vivo
Method: Compound A was administered as an aqueous solution in sterile water by daily oral gavage to adult healthy beagle dogs.
The dogs received 28 consecutive daily doses at dose levels of 0, 15, 30 or 60 mg/kg. […] Organ weights of male and female reproductive tract tissues were 33-86% lower than that of concurrent controls, and occurred in all dose groups. […] In the epididymides, vacuolation (mild) of epithelium was also present in the mid- and high-dose males. […] This was characterized in the ovaries by a lack of antral follicles, and most follicles that were present were small and contained only small numbers of granulosa cells. Compared to control dogs, the uterine bodies and horns had less myometrial tissue present. Uterine epithelium from dogs receiving Compound A with immature uteri had very little cytoplasm present. The changes in the female reproductive system may be related to atrophy rather than immaturity.

[2] = tested on: serum concentrations of testosterone (T) and luteinizing hormone (LH); assay: Serum LH and testosterone in male dogs dosed for 1, 3 or 7 days; type: in vivo, beagle dogs
Method: To further characterize reproductive system effects, adult male healthy beagle dogs were administered sterile water (placebo) or Compound A orally by gavage for 1, 3 or 7 days (Day 0=first day of dosing). Serum was collected from blood for determination of serum concentrations of testosterone (T) and luteinizing hormone (LH).
There were typically one to three spikes of LH and T within the sampling period. In many dogs the LH spikes preceded the T spikes by 20 to 40 minutes.
In dogs receiving Compound A, serum LH and T concentrations were generally near the lower baseline values at the first time point evaluated (1 hour after the first doses), and then typically declined throughout the 4-hour evaluation. This trend toward decreased LH and T concentrations from 60 to 300 minutes postdose was statistically significant (p<0.0001). LH and T remained at low concentrations for the remainder of the study. […] The decline in LH to very low (mean values of 1.5 to 3.8 ng/ml for Compound A versus 10.2 to 14.8 ng/ml for Controls) concentration was more rapid than that seen with T. In dogs receiving Compound A, serum LH and T concentrations at Day 2 were generally lower than those at Day 0. Serum LH concentrations on Day 6 were similar to those on Day 2, while serum T concentrations on Day 6 were generally lower than those on Day 2. By Days 2 and 6, some LH and many T samples were below the limit of detection despite using sensitive assays.

[3] = tested on: serum LH, T, DHEA, and androstenedione; assay: Lower-dose 7-day study in male beagle dogs; type: in vivo
Method: Another study was conducted to evaluate the effects of lower doses (0.1, 0.5, 2.5, 12.5 mg/kg) of Compound A administered to male beagle dogs for 7 days.

[4] = tested on: serum LH, T, androstenedione, and DHEA; assay: Reversibility of the effects on hormones, 7 days dosing and 14-day postdose period; type: in vivo, dogs
Method: The following investigative study was conducted to determine whether the changes observed after 1 week of Compound A administration were reversible after a 14-day postdose period. The first day of dosing was Day 1.
There were eight dogs in Group 1, who received placebo (sterile water) and twelve dogs in Group 2, who received Compound A. Dogs were scheduled to be dosed for 7 days; however, one dog died shortly after receiving the sixth dose of compound A. All eight dogs in Group 1 had hormonal evaluations on Day 7; 4 of these dogs were necropsied on Day 8. The remaining four dogs in Group 1 had hormonal evaluations on Day 21 (14 days postdose), and were necropsied on Day 22. In Group 2, eleven dogs had hormonal evaluations on Day 7, and five were necropsied on Day 8. The remaining six dogs in Group 2 had hormonal evaluations on Day 21 (14 days postdose) and were necropsied on Day 22.
There were typically one to three spikes of LH and T within the sampling period. In many dogs the LH spikes preceded the T spikes by 30 to 60 minutes. Androstenedione and DHEA concentrations tended to rise and fall with those of T, although in some dogs there were many values below the limit of quantitation.
In dogs receiving Compound A at Day 7, serum LH, T, androstenedione, and DHEA concentrations were often very low. Group mean values for LH, T, androstenedione, and DHEA were 14.7, 1.5, 0.37, and 0.88 ng/ml for dogs receiving sterile water, while dogs receiving Compound A had group mean values of 2.4, 0.05, 0.01 and 0.03 ng/ml, respectively. […] It should also be noted that on Day 7 almost all T, androstenedione, and DHEA samples were below the limit of detection despite using sensitive assays.

[5] = tested on: Shionogi mouse mammary carcinoma tumors; assay: Androgen-dependent tumor growth, Shionogi carcinoma in nude mice; type: in vivo; details: end of 15 days, relative to vehicle control
Method: (§1) Following the observation of reduction of serum testosterone in mice, the effects of Compound A on androgen-dependent tumor growth were tested. […] Shionogi mouse mammary carcinoma tumors were grown in nude mice as an androgen-dependent model, and DU-145 human prostate carcinoma tumors were grown in nude mice as an androgen-independent model.
In the Shionogi experiment, male nu/nu mice (8-9 weeks old, 10 mice/group) were inoculated with Shionogi carcinoma cells and tumors were grown to approximately 150 mm^3 before initiation of Compound A administration. Mice were treated twice daily, i.p. with 20% HPβCD vehicle control, 5 mg/kg Compound A or 15 mg/kg Compound A. Tumor growth was inhibited over 15 days of Compound A treatment relative to vehicle control animals. At the end of 15 days, mean tumor volumes were inhibited by 41% and 69% in the 5 mg/kg and 15 mg/kg groups, respectively.

[6] = tested on: DU-145 human prostate carcinoma tumors; assay: Androgen-independent tumor growth, DU-145 in nude mice; type: in vivo; details: 15, 45 or 90 mg/kg twice daily i.p., over 30 days
Method: as §1
In the DU-145 experiment, male nu/nu mice (9-10 weeks old, 10 mice/group) were inoculated with DU-145 prostate carcinoma cells and tumors were grown to approximately 65 mm^3 before initiation of Compound A administration. Mice were treated twice daily, i.p. with 20% HPβCD vehicle control, 15 mg/kg, 45 mg/kg or 90 mg/kg of Compound A. As expected, tumor growth was not inhibited over 30 days in any of the Compound A groups.

[7] = males, all dose groups, 28 days oral
[8] = 7 days, 0.1, 0.5, 2.5, 12.5 mg/kg
[9] = 7 days, doses of 2.5 and 12.5 mg/kg

Q: For `CN(C/C(=N\O)C(CCN1CCC(N2CCCC(CC(N)=O)C2=O)CC1)c1ccc(Cl)c(Cl)c1)C(=O)c1cc(Cl)cc(Cl)c1` (stereo not shown) [B], which “reduction of LHRH-stimulated serum testosterone (statistical significance)” value (“reduction … (statistical significance)” for short) (serum testosterone; 90 mg/kg, male nude mice) is on record?
A: statistically significant (p<0.01) reduction

Q: With `CO/N=C(\CN(C)C(=O)c1cc(Cl)cc(Cl)c1)C(CCN1CCC(N2CCCC(CC(N)=O)C2=O)CC1)c1ccc(Cl)c(Cl)c1` (stereo not shown) [C] as the compound, how does the “reduction … (statistical significance)” value (serum testosterone; 90 mg/kg, male nude mice) read?
A: statistically significant (p<0.01) reduction

Q: With `CNC(=O)CC1CCCN(C2CCN(CCC(/C(CN(C)C(=O)c3cc(Cl)cc(Cl)c3)=N/OC)c3ccc(Cl)c(Cl)c3)CC2)C1=O` (stereo not shown) [Compound A] as the compound, how does the “organ weights of male and female reproductive tract tissues, lower than concurrent controls” value ([1]; beagle dogs, oral gavage, 28 daily doses, all dose groups (15, 30, 60 mg/kg)) read?
A: 33-86%

Q: What about the “appearance of ovaries and uteri” value ([1]; females, at least one dog in each dose group, 28 days oral) of the same compound?
A: appeared immature

Q: What about the “aspermia/hypospermia in the epididymides” value ([1]; males, 28 days oral) of the same compound?
A: observed in all dose groups

Q: And the “atrophy of epididymides (microscopic grade)” value [1, 7]?
A: minimal to moderate

Q: What about the “atrophy of prostate gland (microscopic grade)” value [1, 7] of the same compound?
A: mild to moderate

Q: What about the “atrophy of seminiferous tubules in the testes (microscopic grade)” value [1, 7] of the same compound?
A: severe

Q: What about the “vacuolation of epithelium in the epididymides (grade)” value ([1]; mid- and high-dose males, 28 days oral) of the same compound?
A: mild

Q: And the “group mean serum T concentration compared to concurrent controls” value ([2]; Day 0, 2 and 6, p≦0.0001)?
A: significant lower

Q: What about the “group mean serum LH concentration compared to concurrent controls” value ([2]; Day 0, 2 and 6, p≦0.0005) of the same compound?
A: significant lower

Q: And the “pulsatile patterns of serum LH and T” value ([2]; male beagle dogs, oral gavage)?
A: lacked the normal pulsatile patterns

Q: What about the “histopathologic changes in testes and epididymides” value [3, 8] of the same compound?
A: degeneration and cellular debris in the seminiferous tubules, interstitial cell vacuolation in the testes, epithelial vacuolation, atrophy, apoptosis, hypospermia, and interstitial edema of the epididymides

Q: What about the “histopathologic changes of the prostate gland” value [3, 8] of the same compound?
A: Epithelial apoptosis and atrophy

Q: And the “decrease in serum DHEA (dehydroepiandrosterone)” value [3, 9]?
A: clearly observed

Q: And the “decrease in serum LH” value [3, 9]?
A: clearly observed

Q: And the “decrease in serum T” value [3, 9]?
A: clearly observed

Q: And the “decrease in serum androstenedione” value [3, 9]?
A: clearly observed

Q: And the “group mean serum androstenedione” value ([4]; Day 7, sterile water group 0.37 ng/ml)?
A: 0.01 ng/mL

Q: What about the “group mean serum DHEA” value ([4]; Day 7, sterile water group 0.88 ng/ml) of the same compound?
A: 0.03 ng/mL

Q: And the “group mean serum T” value ([4]; Day 7, sterile water group 1.5 ng/ml)?
A: 0.05 ng/mL

Q: And the “group mean serum LH” value ([4]; Day 7, sterile water group 14.7 ng/ml)?
A: 2.4 ng/mL

Q: And the “serum DHEA group mean and peak mean concentrations versus concurrent controls” value ([4]; Day 21 (14 days postdose))?
A: not significantly different

Q: What about the “serum LH group mean and peak mean concentrations versus concurrent controls” value ([4]; Day 21 (14 days postdose)) of the same compound?
A: not significantly different

Q: What about the “serum T group mean and peak mean concentrations versus concurrent controls” value ([4]; Day 21 (14 days postdose)) of the same compound?
A: not significantly different

Q: And the “serum androstenedione group mean and peak mean concentrations versus concurrent controls” value ([4]; Day 21 (14 days postdose))?
A: not significantly different

Q: What about the mortality ([4]; twelve dogs in the group, shortly after the sixth dose) of the same compound?
A: one dog died

Q: What about the “inhibition of serum testosterone” value (serum testosterone; 15 mg/kg oral in 20% HPβCD, LHRH i.m. after 1 hour, bled after an additional hour) of the same compound?
A: 62%

Q: What about the “reduction … (statistical significance)” value (serum testosterone; 90 mg/kg, male nude mice) of the same compound?
A: statistically significant (p<0.01) reduction

Q: What about the “maximum inhibition of serum testosterone” value (serum testosterone; 300 mg/kg oral in 20% HPβCD, LHRH i.m. after 1 hour, bled after an additional hour) of the same compound?
A: 83%

Q: What about the “inhibition of mean tumor volume” value ([5]; 5 mg/kg twice daily i.p.) of the same compound?
A: 41%

Q: What about the “inhibition of mean tumor volume” value ([5]; 15 mg/kg twice daily i.p.) of the same compound?
A: 69%

Q: And the tumor growth inhibition [6]?
A: not inhibited

Q: What does the source list for `CNC(=O)CC1CCCN(C2CCN(CCC(/C(CNC(=O)c3cc(Cl)cc(Cl)c3)=N/OC)c3ccc(Cl)c(Cl)c3)CC2)C1=O` (stereo not shown) [Compound D]?
A: reduction of LHRH-stimulated serum testosterone (statistical significance) (serum testosterone; 90 mg/kg, male nude mice): failed to reach statistical significance; reduction of mean serum testosterone (serum testosterone; 90 mg/kg, male nude mice, LHRH-stimulated): 19%

Q: With `CO/N=C(\CNC(=O)c1cc(Cl)cc(Cl)c1)C(CCN1CCC(N2CCC[C@H](CC(N)=O)C2=O)CC1)c1ccc(Cl)c(Cl)c1` (stereo partly shown) [E] as the compound, how does the “reduction … (statistical significance)” value (serum testosterone; 90 mg/kg, male nude mice) read?
A: statistically significant (p<0.01) reduction

Q: With `CNC(=O)C[C@H]1CCCN(C2CCN(CC[C@@H](/C(CN(C)C(=O)c3cc(Cl)cc(Cl)c3)=N/O)c3ccc(Cl)c(Cl)c3)CC2)C1=O` [F] as the compound, how does the “reduction … (statistical significance)” value (serum testosterone; 90 mg/kg, male nude mice) read?
A: statistically significant (p<0.01) reduction
